Results from patent US9962453B2, “Immunogenic compound” (ALTIMMUNE UK LIMITED, priority 2013, dated 2018).
Counter-ions that a name gives are not always drawn. Marks after values point to notes of the source that are not given here. No end group written: not given here. PEG‑FIM = not defined here

Key:
[1] = test system: T cell immune response to FP-02.2 vaccine peptides; type: in vivo, BALB/c mice; conditions: conclusions of Example 2
[2] = target: T1, human TLR7 (Homo sapiens, UniProt Q9NYK1); assay: Human TLR7 HEK-Blue reporter gene assay (NF-kappaB activation, SEAP); type: cell-based; conditions: in comparison with R848
T1 construct: host or cells: HEK-Blue-hTLR7 (HEK293)
T1 sequence (Q9NYK1 27-1049): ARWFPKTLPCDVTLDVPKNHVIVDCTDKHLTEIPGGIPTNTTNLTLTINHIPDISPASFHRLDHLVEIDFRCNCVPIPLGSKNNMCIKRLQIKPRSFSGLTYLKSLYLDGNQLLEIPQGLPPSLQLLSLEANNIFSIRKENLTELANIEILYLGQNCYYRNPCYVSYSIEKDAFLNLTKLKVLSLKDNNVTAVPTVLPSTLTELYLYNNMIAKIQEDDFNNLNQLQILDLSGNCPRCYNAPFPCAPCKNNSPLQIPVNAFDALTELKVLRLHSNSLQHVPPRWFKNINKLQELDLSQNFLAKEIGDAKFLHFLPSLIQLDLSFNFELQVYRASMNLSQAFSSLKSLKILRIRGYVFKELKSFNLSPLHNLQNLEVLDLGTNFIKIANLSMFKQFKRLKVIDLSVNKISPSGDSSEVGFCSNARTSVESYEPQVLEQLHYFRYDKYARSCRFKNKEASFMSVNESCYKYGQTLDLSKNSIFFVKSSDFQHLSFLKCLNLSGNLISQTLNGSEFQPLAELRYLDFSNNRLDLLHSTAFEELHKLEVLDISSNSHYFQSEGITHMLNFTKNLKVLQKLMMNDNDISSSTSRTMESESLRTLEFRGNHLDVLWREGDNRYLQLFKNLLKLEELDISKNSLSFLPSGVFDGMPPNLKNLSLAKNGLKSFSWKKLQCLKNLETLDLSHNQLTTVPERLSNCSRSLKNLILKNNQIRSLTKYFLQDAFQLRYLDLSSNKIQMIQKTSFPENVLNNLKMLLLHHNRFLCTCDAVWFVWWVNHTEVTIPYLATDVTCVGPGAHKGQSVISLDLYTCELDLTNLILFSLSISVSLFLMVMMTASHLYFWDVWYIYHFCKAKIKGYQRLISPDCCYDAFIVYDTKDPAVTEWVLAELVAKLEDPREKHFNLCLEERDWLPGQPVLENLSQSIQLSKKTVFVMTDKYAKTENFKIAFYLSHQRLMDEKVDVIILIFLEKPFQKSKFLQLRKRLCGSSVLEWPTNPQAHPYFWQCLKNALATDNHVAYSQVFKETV
Method: (§1) The activity of different TLR-7 or TLR-8 agonist were tested using human TLR-specific HEK-Blue™ reporter gene assays (Invivogen, France). HEK-Blue™-hTLR7 cells and HEK-Blue™-hTLR8 cells were obtained by co-transfection of the human TLR7 gene or human TLR8 genes and an inducible SEAP (secreted embryonic alkaline phosphatase) reporter gene into HEK293 cells. The SEAP gene is placed under the control of the IFN-β minimal promoter fused to five NF-kappaB and AP-1-binding sites. Stimulation with a TLR ligand activates NF-kappaB and AP-1 which induce the production of SEAP. Cells were maintained in HEK-Blue™ selection medium containing Blasticidin, Zeocin and Normocin. HEK-Blue™ cells were incubated at a density of 10^5 cells/mL in a volume of 200 ul in 96 well plates. In the presence of the HEK-Blue™ detection media, the secretion of SEAP (proportional to the to the NF-kappaB induction) was quantified at […].

[3] = target: T2, human TLR8 (Homo sapiens, UniProt Q9NR97); assay: Human TLR8 HEK-Blue reporter gene assay (NF-kappaB activation, SEAP); type: cell-based; conditions: in comparison with R848
T2 construct: host or cells: HEK-Blue-hTLR8 (HEK293)
T2 sequence (Q9NR97 27-1041): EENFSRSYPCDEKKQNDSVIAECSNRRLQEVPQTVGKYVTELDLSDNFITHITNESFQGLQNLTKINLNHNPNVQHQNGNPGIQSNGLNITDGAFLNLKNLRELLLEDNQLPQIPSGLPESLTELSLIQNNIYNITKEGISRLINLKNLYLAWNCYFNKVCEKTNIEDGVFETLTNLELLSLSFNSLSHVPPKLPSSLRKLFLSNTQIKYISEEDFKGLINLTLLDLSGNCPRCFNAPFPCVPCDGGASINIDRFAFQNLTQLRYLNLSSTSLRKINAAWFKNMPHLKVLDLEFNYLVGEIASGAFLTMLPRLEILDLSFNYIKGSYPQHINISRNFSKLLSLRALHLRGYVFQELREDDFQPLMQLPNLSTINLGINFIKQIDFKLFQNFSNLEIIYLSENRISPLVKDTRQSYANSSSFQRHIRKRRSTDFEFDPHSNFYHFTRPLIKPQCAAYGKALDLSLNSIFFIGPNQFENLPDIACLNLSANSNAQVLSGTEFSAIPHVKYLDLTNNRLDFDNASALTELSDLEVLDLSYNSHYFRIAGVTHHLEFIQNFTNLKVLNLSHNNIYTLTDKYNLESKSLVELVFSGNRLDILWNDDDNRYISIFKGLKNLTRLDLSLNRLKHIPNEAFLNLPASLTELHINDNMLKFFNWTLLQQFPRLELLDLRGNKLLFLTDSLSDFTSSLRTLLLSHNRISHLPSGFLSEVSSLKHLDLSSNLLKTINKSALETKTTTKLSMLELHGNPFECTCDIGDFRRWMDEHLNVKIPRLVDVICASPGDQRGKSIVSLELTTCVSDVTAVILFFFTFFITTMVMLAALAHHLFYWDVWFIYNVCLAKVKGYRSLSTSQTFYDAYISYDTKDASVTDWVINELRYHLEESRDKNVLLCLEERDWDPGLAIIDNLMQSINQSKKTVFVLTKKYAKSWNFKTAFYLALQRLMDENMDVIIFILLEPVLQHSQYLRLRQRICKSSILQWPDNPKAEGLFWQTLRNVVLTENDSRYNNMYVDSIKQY
Method: as §1

[4] = Particle size measurement (dynamic light scattering) and visual solubility in aqueous solutions; conditions: for particle size, HIST: 2 mg net mass/ml in 28 mM L-Histidine buffer, pH 5.9 to 6.4; for particle size, HIST/NaCl: 2 mg net mass/ml in 0.9% sodium chloride in 28 mM L-histidine, pH 5.9 to 6.3; for particle size, NaCl: 2 mg net mass/ml in 0.9% sodium chloride, pH 3.3 to 4.2; for particle size, PBS: 2 mg net mass/ml in 1× PBS, pH 6.9 to 7.5; for particle size, Water: 2 mg net mass/ml in water, pH 3.1 to 4.1, 20 °C; on particle size, HIST/NaCl: unit not given here; on particle size, HIST: unit not given here; on particle size, NaCl: unit not given here; on particle size, PBS: unit not given here; on particle size, Water: unit not given here

Molecule	adjuvanticity, conjugates versus free R848 [1]	NF-kappaB activation in HEK-293 cells expressing TLR-7 [2]	NF-kappaB activation in HEK-293 cells expressing TLR-8 [3]	particle size, HIST [4]	particle size, HIST/NaCl [4]	particle size, NaCl [4]	particle size, PBS [4]	particle size, Water [4]	behaviour in the particle size assay ([4]; water, HIST, NaCl versus HIST/NaCl, PBS)
CCOCc1nc2c(N)nc3ccccc3c2n1CC(C)(C)O [Peptide R848, [4-Amino-2-(ethoxymethyl)-1H-imidazo[4,5-c]quinolin-1-yl]-2-methyl-2-propanol, HCl, reference compound]	little to no-adjuvanticity	highly active	highly active						
Ac-RRLLLAPLALPALLLRRL-NH2 [Peptide 4, Ac-RRLLLAPLALPALLLRRL-NH2]				0*	0*	0*	2.38*	0*	
Ac-RRLLPAALALAAPLLRRL-NH2 [Peptide 2, Ac-RRLLPAALALAAPLLRRL-NH2]				0*	0*	0*	4.52*	0*	
Ac-RRLLPAHLALHAPLLRRL-NH2 [Peptide 14, Ac-RRLLPAHLALHAPLLRRL-NH2]				0*	0*	0*	1.5*	0*	
Ac-RRLLPALLALLAPLLRRL-NH2 [Peptide 3, Ac-RRLLPALLALLAPLLRRL-NH2]				0*	0*	0*	3.37*	0*	
Ac-RRLLPAPLALPAPLLRRL-NH2 [Peptide 1, Ac-RRLLPAPLALPAPLLRRL-NH2]				0*	0.87*	0*	2.39*	0*	
H-K(Ac)RRLLHAHLALHAHLLRRLK(Ac)-NH2 [Peptide 16′, K(Ac)RRLLHAHLALHAHLLRRLK(Ac)-NH2]				0*	2.3*	0*	2.9*	0*	apparent solubility in water, 28 mM L-Histidine and 0.9% NaCl with the formation of larger particles or insoluble aggregates in 28 mM L-Histidine/NaCl or PBS
RLK(PEG-FIM)-NH2 (Arg-Leu-Lys(PEG‑FIM)-NH2; reading uncertain; also: printed as RLK(PEG-FIM)-NH2) [RLK-PEG-FIM-01]		also active in the TLR-7 and TLR-8 cell line but to a much lesser extent compared to R848	also active in the TLR-7 and TLR-8 cell line but to a much lesser extent compared to R848						
